From US8691799B2, “Materials and methods for treatment of cancer and identification of anti-cancer compounds” (priority 2001, dated 2014) come the findings set out here.

One assay deals with A549 tumors. The assay is described as follows: Antitumor activity, A549 xenograft in nude mice. In kind it is in vivo. An excerpt: Antitumor Activity in the Nude Mouse Tumor Xenograft Model. Nude mice and C57 BL-6 black mice (National Cancer Institute, Bethesda, Md.) were maintained in accordance with the Institutional Animal Care and Use Committee (IACUC) procedures and guidelines. v-Src- and oncogenic H-Ras-transformed NIH 3T3, A549, MDA-MB-468 and Calu-1 cells were harvested, resuspended in PBS and injected s.c. into the right and left flank (10×10^6 cells per flank) of 8 week old female nude mice as reported previously (Sun, J. et al. Cancer Res., 1999, 59:4919-4926). Similarly, murine B16-F10 Melanoma cells were injected s.c. into the right and left flank (10^6 cells per flank) of C57 black mice. When tumors reached about 150 mm^3, animals were randomized (five animals per group; two tumors per animal) and dosed i.p. with 0.2 ml once daily. […] The tumor volumes were determined by measuring the length (l) and the width (w) and calculating the volume (V=1w^2/2) as described previously (Sun, J. et al. Cancer Res., 1999, 59:4919-4926). Statistical significance between control and treated animals were evaluated by using Student's t-test. For the mouse survival experiments, C57 BL-6 black mice were implanted s.c. with B16-F10 cells (10^5 to 10^6 cells per flank). […] Percent surviving mice was determined by monitoring the death of mice until all mice died. […]

For another assay, the system named is B16-F10 tumors. The experiment in a line: Antitumor activity, B16-F10 melanoma in C57 black mice. It is filed as in vivo. Conditions: 1 mg/Kg/day. An excerpt:
Antitumor Activity in the Nude Mouse Tumor Xenograft Model. Nude mice and C57 BL-6 black mice (National Cancer Institute, Bethesda, Md.) were maintained in accordance with the Institutional Animal Care and Use Committee (IACUC) procedures and guidelines. v-Src- and oncogenic H-Ras-transformed NIH 3T3, A549, MDA-MB-468 and Calu-1 cells were harvested, resuspended in PBS and injected s.c. into the right and left flank (10×10^6 cells per flank) of 8 week old female nude mice as reported previously (Sun, J. et al. Cancer Res., 1999, 59:4919-4926). Similarly, murine B16-F10 Melanoma cells were injected s.c. into the right and left flank (10^6 cells per flank) of C57 black mice. When tumors reached about 150 mm^3, animals were randomized (five animals per group; two tumors per animal) and dosed i.p. with 0.2 ml once daily. Control animals received DMSO (20%) vehicle whereas treated animals were injected with JSI-124 (1 mg/kg/day) in 20% DMSO in water. The tumor volumes were determined by measuring the length (l) and the width (w) and calculating the volume (V=1w^2/2) as described previously (Sun, J. et al. Cancer Res., 1999, 59:4919-4926). Statistical significance between control and treated animals were evaluated by using Student's t-test. […] Percent surviving mice was determined by monitoring the death of mice until all mice died. […]

The target of another assay is T1, EGFR (Homo sapiens, UniProt P00533).
T1 construct: EGFR tyrosine phosphorylation in the breast cell line MCF-10A; endogenous in cells; host or cells: MCF-10A; also EGFR-overexpressing NIH 3T3
The assay is described as follows: EGF-stimulation of EGFR tyrosine phosphorylation. In kind it is cell-based. The settings on record: MCF-10A and EGFR-overexpressing NIH 3T3 cells (data not shown).

For another assay, the target named is T2, JAK2 (Homo sapiens, UniProt O60674).
T2 construct: Src, JAK1, and JAK2 were immunoprecipitated from either A549, MDA-MB-468, or v-Src/NIH 3T3 cells; endogenous in cells; host or cells: A549, MDA-MB-468, v-Src transformed NIH 3T3 (immunoprecipitates)
The assay is described as follows: JAK kinase autophosphorylation assay on immunoprecipitates (JAK2). Conditions: immunoprecipitates from A549, MDA-MB-468 or v-Src/NIH 3T3 cells; AG490 100 μM, PD180970 2 μM. It is filed as biochemical. Here is the method:
JAK Kinase Assays. A549, MDA-MB-468, and v-Src transformed NIH 3T3 cells were harvested, washed three times in PBS-V (10 mM sodium phosphate, pH 7.4, 137 mM NaCl, 1 mM sodium orthovanadate) then lysed for 30 min on ice in JAK kinase lysis buffer (25 mM Hepes, pH 7.4, 0.1% Triton-X-100, 0.5 mM DTT, 1 mM sodium orthovanadate, 1 mM PMSF, 10 μg/ml aprotinin, 10 μg/ml leupeptin). Samples were spun at high speed to clear, and 800-1000 μg of protein was immunoprecipitated per treatment condition with 50 ng of either JAK1 or JAK2 antibody (Santa Cruz Biotechnology) rocking overnight at 4° C. 25 μl of protein A/G PLUS agarose then was added and rocking continued for 1 hr at 4° C. Samples were spun to collect agarose pellet, and pellet washed twice in wash buffer (50 mM Hepes, pH 7.4, 0.1% Triton-X-100, 0.5 mM DTT, 150 mM NaCl) and once in phosphorylation buffer (50 mM Hepes, pH 7.4, 0.1% Triton-X-100, 0.5 mM DTI, 6.25 mM manganese chloride, 100 mM NaCl). Kinase reactions were performed at 30° C. for 15 min in a final volume of 100 μl of phosphorylation buffer. Samples were pretreated with DMSO control, JSI-124, and control compounds (AG490, 100 μM, and […], 2 μM) before addition of 20 μCi/sample y-[^32P]ATP. Reaction was halted using stop buffer (wash buffer plus 10 mM EDTA), samples spun to collect pellet, then pellet washed once with stop buffer and twice with wash buffer. Samples were then placed in 2×SDS-PAGE sample buffer, boiled at 100° C., and run on 8% SDS-PAGE gels to separate proteins. Autophosphorylation results were visualized by autoradiography.

The test system of another assay is B16-F10 melanoma. The experiment in a line: Mouse survival, B16-F10 melanoma in C57 black mice. The settings on record: 1 mg/Kg/day for 25 days, B16-F10 s.c. In kind it is in vivo. The source says:
Antitumor Activity in the Nude Mouse Tumor Xenograft Model. Nude mice and C57 BL-6 black mice (National Cancer Institute, Bethesda, Md.) were maintained in accordance with the Institutional Animal Care and Use Committee (IACUC) procedures and guidelines. v-Src- and oncogenic H-Ras-transformed NIH 3T3, A549, MDA-MB-468 and Calu-1 cells were harvested, resuspended in PBS and injected s.c. into the right and left flank (10×10^6 cells per flank) of 8 week old female nude mice as reported previously (Sun, J. et al. Cancer Res., 1999, 59:4919-4926). Similarly, murine B16-F10 Melanoma cells were injected s.c. into the right and left flank (10^6 cells per flank) of C57 black mice. When tumors reached about 150 mm^3, animals were randomized (five animals per group; two tumors per animal) and dosed i.p. with 0.2 ml once daily. Control animals received DMSO (20%) vehicle whereas treated animals were injected with JSI-124 (1 mg/kg/day) in 20% DMSO in water. The tumor volumes were determined by measuring the length (l) and the width (w) and calculating the volume (V=1w^2/2) as described previously (Sun, J. et al. Cancer Res., 1999, 59:4919-4926). Statistical significance between control and treated animals were evaluated by using Student's t-test. For the mouse survival experiments, C57 BL-6 black mice were implanted s.c. with B16-F10 cells (10^5 to 10^6 cells per flank). On day 5 after implantation the mice were randomized (6 animals per group) and treated with either vehicle or JSI-124 (1 mg/Kg/day) for 25 days. Percent surviving mice was determined by monitoring the death of mice until all mice died. Two experiments of 12 animals each (6 control and 6 treated with JSI-124) were carried out. For statistical analysis: for each of the two experiments, mice receiving JSI-124 were compared to those receiving vehicle control with respect to survival using the permutation log rank test as implemented in the statistical software package, ProcStatXact (p-values are two sided and exact).

T2 sequence (O60674 whole entry): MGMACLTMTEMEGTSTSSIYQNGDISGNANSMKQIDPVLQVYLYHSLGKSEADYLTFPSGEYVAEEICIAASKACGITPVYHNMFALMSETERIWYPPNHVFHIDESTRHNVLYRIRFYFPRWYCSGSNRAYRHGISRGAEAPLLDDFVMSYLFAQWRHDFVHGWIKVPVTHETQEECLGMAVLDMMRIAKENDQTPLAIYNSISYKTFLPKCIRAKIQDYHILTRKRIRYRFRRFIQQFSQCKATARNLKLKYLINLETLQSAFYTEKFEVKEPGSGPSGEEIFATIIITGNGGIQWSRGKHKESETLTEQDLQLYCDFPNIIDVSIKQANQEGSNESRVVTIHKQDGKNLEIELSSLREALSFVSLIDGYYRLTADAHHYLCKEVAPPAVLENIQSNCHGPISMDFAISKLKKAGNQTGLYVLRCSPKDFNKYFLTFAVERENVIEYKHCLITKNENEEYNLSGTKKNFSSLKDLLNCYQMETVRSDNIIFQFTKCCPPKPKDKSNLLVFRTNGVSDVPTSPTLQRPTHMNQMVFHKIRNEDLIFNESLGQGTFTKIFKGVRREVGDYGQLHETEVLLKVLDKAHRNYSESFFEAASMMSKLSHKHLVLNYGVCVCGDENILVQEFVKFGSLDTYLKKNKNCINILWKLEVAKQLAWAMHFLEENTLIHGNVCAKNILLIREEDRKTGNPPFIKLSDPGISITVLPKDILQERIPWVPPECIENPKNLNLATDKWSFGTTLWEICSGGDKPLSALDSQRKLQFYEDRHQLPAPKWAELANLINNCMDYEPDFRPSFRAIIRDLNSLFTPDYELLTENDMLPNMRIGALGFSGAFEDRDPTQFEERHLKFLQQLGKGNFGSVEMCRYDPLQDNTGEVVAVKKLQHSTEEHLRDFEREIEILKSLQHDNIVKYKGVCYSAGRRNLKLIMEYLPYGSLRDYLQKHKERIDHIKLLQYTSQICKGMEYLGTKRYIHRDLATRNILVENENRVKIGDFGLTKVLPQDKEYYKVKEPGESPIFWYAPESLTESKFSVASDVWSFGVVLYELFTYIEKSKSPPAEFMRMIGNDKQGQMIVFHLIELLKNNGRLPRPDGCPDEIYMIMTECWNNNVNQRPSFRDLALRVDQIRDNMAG
T1 sequence (P00533 25-1210): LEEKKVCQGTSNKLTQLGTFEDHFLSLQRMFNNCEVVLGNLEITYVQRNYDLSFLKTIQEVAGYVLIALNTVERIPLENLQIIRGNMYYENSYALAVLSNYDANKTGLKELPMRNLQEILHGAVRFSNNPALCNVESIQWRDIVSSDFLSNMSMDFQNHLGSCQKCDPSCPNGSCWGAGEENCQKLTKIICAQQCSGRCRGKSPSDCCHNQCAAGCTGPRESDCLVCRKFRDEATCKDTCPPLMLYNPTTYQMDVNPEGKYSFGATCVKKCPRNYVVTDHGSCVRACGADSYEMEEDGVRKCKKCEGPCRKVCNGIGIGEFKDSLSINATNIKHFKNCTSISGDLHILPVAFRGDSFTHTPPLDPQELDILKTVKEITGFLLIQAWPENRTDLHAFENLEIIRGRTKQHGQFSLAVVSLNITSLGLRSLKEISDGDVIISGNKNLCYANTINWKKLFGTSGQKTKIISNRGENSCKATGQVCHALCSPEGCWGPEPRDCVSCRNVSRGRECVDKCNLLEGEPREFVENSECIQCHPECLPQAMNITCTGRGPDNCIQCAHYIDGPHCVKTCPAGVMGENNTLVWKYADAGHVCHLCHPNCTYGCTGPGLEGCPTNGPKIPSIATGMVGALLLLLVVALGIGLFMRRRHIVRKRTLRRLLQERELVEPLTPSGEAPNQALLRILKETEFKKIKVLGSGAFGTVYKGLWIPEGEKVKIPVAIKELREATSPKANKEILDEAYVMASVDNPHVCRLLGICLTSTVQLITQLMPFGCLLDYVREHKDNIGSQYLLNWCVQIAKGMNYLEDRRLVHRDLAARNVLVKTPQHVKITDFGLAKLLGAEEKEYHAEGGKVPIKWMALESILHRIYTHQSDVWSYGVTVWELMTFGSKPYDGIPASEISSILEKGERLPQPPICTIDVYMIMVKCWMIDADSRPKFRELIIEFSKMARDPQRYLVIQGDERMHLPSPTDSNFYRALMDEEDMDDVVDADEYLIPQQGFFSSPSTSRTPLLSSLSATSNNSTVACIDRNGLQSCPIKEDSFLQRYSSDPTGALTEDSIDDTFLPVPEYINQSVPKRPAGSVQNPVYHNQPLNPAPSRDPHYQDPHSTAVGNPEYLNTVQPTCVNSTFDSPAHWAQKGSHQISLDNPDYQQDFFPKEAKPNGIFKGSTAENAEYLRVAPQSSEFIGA

Turning to `CC(C)(O)/C=C/C(=O)[C@](C)(O)[C@H]1[C@H](O)C[C@@]2(C)[C@@H]3CC=C4[C@@H](C=C(O)C(=O)C4(C)C)[C@]3(C)C(=O)C[C@]12C` [JSI-124, cucurbitacin I], the “inhibition of A549 tumor growth, reduced dose” value in the assay with A549 tumors (0.5 mg/kg/day for 23 days, nude mice (data not shown)) was determined as 52%. The “inhibition of A549 tumor growth” value in the assay on A549 tumors (1 mg/kg/day i.p., nude mice) was 76%. Moreover, in the assay on B16-F10 tumors, the “average size of B16-F10 tumors” value is reported as 588±94 and the “inhibition of B16-F10 tumor growth” value stood at 56%. The “EGF-stimulated EGFR tyrosine phosphorylation” value at EGFR is recorded as “inhibited only minimally”. Moreover, the “JAK2 kinase activity (autophosphorylation) in vitro” value on JAK2 was “not affected”. In addition, in the assay with B16-F10 melanoma, the “T50 (day until which 50% of mice survived)” value is on record as 34 days, the “T50 increase versus vehicle” value amounted to 13 days, the “day by which all mice died” value was determined as 42 days and the “day by which none of the treated mice were dead” value was 23 days.
